Source: patent US20040009181A1, “Treatment of ophthalmic conditions” (priority 2002, published 2004)
Ends that are not written are not given here.

Key:
[1] = centrally administered; Peptides 9, 1285-8 (1989); cited from earlier work
[2] = system: C. albicans (clinical isolate); test: C. albicans viability, colony forming units (incl. comparison with fluconazole and ACTH); type: cell-based, Candida albicans; design: potency in reducing C. albicans viability / inhibition of C. albicans CFU: dose or concentration left out as unconfirmed; conditions: for potency in reducing C. albicans viability: comparison among peptides, fluconazole and ACTH; for effect on C. albicans colony forming units: 10^−15 to 10^−4M, 2 hours at 37° C., FIG. 7
Experimental: C. albicans (clinical isolate) were obtained from the collection of the Department of Microbiology, Ospedale Maggiore di Milano. C. albicans were maintained on Sabouraud'[…] periodically transferred to Sabouraud's agar plates and incubated for 48 hours at 28° C. To prepare stationary growth phase yeast, a colony was taken from the agar plate and transferred into 30 ml Sabouraud-dextrose broth and incubated for 72 hours at 32° C. Cells were centrifuged at 100×g for 10 minutes and the pellet was washed twice with distilled water. Cells were counted and suspended in Hank's balanced salt solution (“HBSS”) to the desired concentration. Viability, determined by the exclusion of 0.01% methylene blue, remained >98%. […] ID NO. […] Cells were then washed in cold distilled water and diluted with HBSS to a concentration of 100 organisms/ml. One ml aliquots were dispensed on blood agar plates and incubated for 48 hours at 37° C. Organism viability was estimated from the number of colonies formed. […] (SEQ. […] Fluconazole is a well established antifungal agent. The potency of the peptides in reducing C. albicans viability is studied in comparison with fluconazole and ACTH using similar procedures as in Example VII. […] There were at least six replicates for each concentration of peptide. […] Their inhibitory activity was similar to that of fluconazole. The “core” α-MSH sequence, α-MSH [4-10] (SEQ. […] (SEQ. ID NO. 3) and α-MSH [11-13] […] (SEQ. ID NO. 4) (p<0.05).

[3] = system: Staphylococcus aureus (ATCC29213); test: S. aureus viability, colony forming units; type: cell-based; design: dose or concentration left out as unconfirmed; conditions: 2 hours at 37° C.; FIG. 5
Experimental: Staphylococcus aureus (ATCC29213) was obtained from the collection of the Department of Microbiology, Ospedale Maggiore di Milano. […] (SEQ. ID NO 4), α-MSH [11-13] […] S. aureus were then washed in cold distilled water and diluted with HBSS to a concentration of 100 organisms/ml. One ml aliquots were dispensed on blood agar plates and incubated for 24 hours at 37° C. Organism viability was estimated from the number of colony forming units. (SEQ. ID NO. 4) and α-MSH [11-13]

[4] = Peptides 12, 767-71 (1991); cited from earlier work
corneal epithelial cells = conditions: Lens Eye Toxic. Res. 6: 59-85 (1989); cited from earlier work
[5] = system: Herpes zoster virus (HZV); conditions: Eye 8: 70-74 (1994); cited from earlier work
[6] = system: infectious keratitis of bacterial etiology; test: Treatment of bacterial ophthalmic infection, bacterial keratitis, patient; type: in vivo; conditions: ophthalmic aqueous solution 10^−5 M, 3-5 drops four times daily for 7 days
Source text: A patient presents complaining of eye pain when blinking and blurred vision. Upon examination the cornea appears subtly less transparent than normal cornea and may have ulcers on its surface. The diagnosis is infectious keratitis of bacterial etiology, which is confirmed by laboratory findings.

[7] = system: HIV-1 RNA in PMA-stimulated U1 cells; test: HIV transcription, Northern blot analysis of HIV-RNA in PMA-stimulated U1 cells; type: cell-based; conditions: 10^−5M; PMA (1 ng/mL) stimulated U1 cells, 24 h; FIG. 4
Source text: Total RNA was extracted by the guanidine thiocyanate phenol method using an RNA isolation kit (Tripure, Boehringer Mannheim, Indianapolis, Ind.), following the manufacturer's instructions. Ten μg of total RNA were separated by 0.8% agarose/formaldehyde gel electrophoresis and transferred onto nylon membrane. The filters were baked and hybridized for 18 hr with α^32 P-labeled HIV-full length probe (kind gift of L. Turchetto and E. Vicenzi, S. Raffaele Hospital, Milan, Italy). The radiolabeling reaction was performed using a DNA labeling kit (Ready-to-go, Pharmacia Biotech, San Francisco, Calif.). Filters were washed and exposed to X-ray film for 5 days. The labeled probe was removed by washing at 80° C. in 0.1×SSC containing 0.1% sodium dodecyl sulphate and then rehybridized with α^32 P-labeled glyceraldehyde-3-phosphate dehydrogenase (GAPDH) cDNA probe. Densitometric analysis was performed using ImageMaster™ VDS 3.0 software (Pharmacia Biotech) and results were expressed as density units.

Keratomycosis = test: Treatment of fungal ophthalmic infection, Keratomycosis, patient; type: in vivo; conditions: ophthalmic aqueous solution 10^−5 M, 3-5 drops four times daily for 7 days
Source text: Upon examination, a patient is diagnosed as having Keratomycosis.

[8] = system: Herpes simplex virus blepharitis; test: Treatment of viral ophthalmic infection, HSV blepharitis, patient; type: in vivo; conditions: ophthalmic aqueous solution 10^−5 M, 3-5 drops four times daily for 7 days
Experimental: A patient is diagnosed as having Herpes simplex virus blepharitis. […] The patient is treated with 3-5 drops of the ophthalmic aqueous solution onto the surface of eyes four times daily for 7 days.

[9] = system: S. aureus with recombinant human urokinase; test: Urokinase-induced growth-enhancement of S. aureus, colony counts; type: cell-based, Staphylococcus aureus; conditions: 10^−6 M; urokinase 500 U, four hours at 37° C.; FIG. 6; listed as α-MSH [11-13]
Experimental: In this experiment, the influence of α-MSH on urokinase-induced growth-enhancement is determined. Hart, D. A.; Loule, T.; Krulikl, W.; Reno, C., Staphylococcus Aureus Strains Differ in Their in Vitro Responsiveness to Human Urokinase: Evidence that Methicillin-Resistant Strains are Predominantly Nonresponsive to the Growth-Enhancing Effects of Urokinase, Can. J. Microbiol. 42, 1024-31 […]. […] (SEQ. ID NO. 4) or α-MSH [11-13] (SEQ. ID NO. […]) at 10^−6 M. Appropriate dilutions of S. aureus were dispensed on agar plates and colonies counted after 24 hours incubation at 37° C.

[10] = system: HIV-1 infected promonocytic U1 cell line; test: HIV-p24 release by TNF-α stimulated U1 cells (ELISA); type: cell-based; conditions: 10^−13 to 10^−4 M, FIG. 2
Source text: Before use, cells were washed three times with HBSS (Gibco) to remove extracellular virus.

[11] = system: HIV-1 infected promonocytic U1 cells; test: HIV-p24 and reverse transcriptase release by U1 cells stimulated by IL-6, IL-10, PMA or crowding; type: cell-based; conditions: 10^−5 M; U1 cells induced by IL-6, IL-10, PMA, and in crowding conditions; FIG. 3
Experimental: In all experiments, each condition was tested in triplicate.

[12] = Peptides 6, 273-5 (1985); cited from earlier work

Compound: 10-13 sequence: α-MSH (11-13) with glycine added to form the 10-13 sequence (GKPV; ends and bridges not checked; UniProt P01189 147-150, looked up, fragment)
- antipyretic potency relative to α-MSH (11-13) sequence [1]: slightly decreased potency

Compound: ACTH (18-39): ACTH fragment (18-39), also called CLIP [reference compound]
- potency in reducing C. albicans viability ([2]; FIG. 8): did not reduce

Compound: Val-Pro-Lys-AcCys-s-s-CysAc-Lys-Pro-Val [KPV dimer]
- effect on C. albicans colony forming units [2]: inhibited
- effect on S. aureus colony formation (CFU) [3]: inhibited

Compound: [D-K^11] α-MSH 11-13
- anti-inflammatory activity relative to L-form tripeptide α-MSH 11-13 [4]: same general potency as the L-form

Compound: MEHFRWG (Ac-MEHFRWG-NH2) [α-MSH [4-10]]
- inhibition of C. albicans CFU ([2]; FIG. 8): approximately 50%

Compound: O=c1[nH]c(=O)n([C@H]2C[C@H](O)[C@@H](CO)O2)cc1I [Idoxurine]
- toxicity to corneal epithelial cells (corneal epithelial cells): toxic to corneal epithelial cells

Compound: Nc1nc2c(ncn2COCCO)c(=O)[nH]1 [Acyclovir]
- preventative effect on ocular complications of HZV [5]: little or no preventative effect

Compound: 9-13 sequence: α-MSH 9-13 sequence (WGKPV; ends and bridges not checked; UniProt P01189 146-150, looked up, fragment)
- antipyretic potency relative to α-MSH (11-13) sequence [1]: almost devoid of activity

Compound: HFRWGKPV (Ac-HFRWGKPV-NH2) [α-MSH [6-13], α-MSH from residue 6 through residue 13]
- potency in reducing C. albicans viability ([2]; FIG. 8): most effective

Compound: ACTH (1-39): Adrenocorticotropic Hormone (1-39) (SYSMEHFRWGKPVGKKRRPVKVYPNGAEDESAEAFPLEF; Corticotropin; UniProt P01189 138-176, looked up) [reference compound]
- potency in reducing C. albicans viability ([2]; FIG. 8): did not reduce

Compound: KPV
- outcome of bacterial keratitis after treatment [6]: either shows marked improvement or fully recovers
- reduction of spliced HIV-1 RNA [7]: approximately 50%
- reduction of unspliced HIV-1 RNA [7]: approximately 50%
- outcome of Keratomycosis after treatment (Keratomycosis): either shows marked improvement or fully recovers
- effect on C. albicans colony forming units [2]: greatly reduced
- potency in reducing C. albicans viability ([2]; FIG. 8): most effective
- HSV blepharitis symptom after treatment [8]: substantially reduced
- effect on S. aureus colony formation (CFU) [3]: inhibited
- effect on urokinase-enhanced S. aureus colony formation [9]: significantly inhibited the enhancing effect of urokinase
- effect on p24 release [10]: significantly inhibited
- effect on RT (reverse transcriptase) release [11]: significantly inhibited
- effect on p24 release [11]: significantly inhibited

Compound: 8-13 sequence: α-MSH 8-13 sequence (RWGKPV; ends and bridges not checked; UniProt P01189 145-150, looked up, fragment)
- antipyretic potency relative to α-MSH (11-13) sequence [1]: greater than that of the 11-13 sequence

Compound: [Nle^4 DPhe^7]-α-MSH
- potency in reducing fever relative to parent peptide α-MSH [12]: approximately ten times more potent than the parent peptide
